Bridge positions count the residues as written; N and C are the ends. Square brackets hold non-standard residues; d marks the D form. Peptide text beside a SMILES is read from it. Hyp = O=C(O)[C@@H]1C[C@@H](O)CN1; Cit = NC(=O)NCCC[C@H](N)C(=O)O
Legend:
[1] = target: T1, hAMY3 receptor (Homo sapiens, UniProt O60896+P30988); test: cAMP assay for in vitro receptor activation, hAMY3-R; type: cell-based; conditions: cAMP assay, hAMY3 receptor; read-out: hAMY3R EC50
T1 sequence (P30988 25-474): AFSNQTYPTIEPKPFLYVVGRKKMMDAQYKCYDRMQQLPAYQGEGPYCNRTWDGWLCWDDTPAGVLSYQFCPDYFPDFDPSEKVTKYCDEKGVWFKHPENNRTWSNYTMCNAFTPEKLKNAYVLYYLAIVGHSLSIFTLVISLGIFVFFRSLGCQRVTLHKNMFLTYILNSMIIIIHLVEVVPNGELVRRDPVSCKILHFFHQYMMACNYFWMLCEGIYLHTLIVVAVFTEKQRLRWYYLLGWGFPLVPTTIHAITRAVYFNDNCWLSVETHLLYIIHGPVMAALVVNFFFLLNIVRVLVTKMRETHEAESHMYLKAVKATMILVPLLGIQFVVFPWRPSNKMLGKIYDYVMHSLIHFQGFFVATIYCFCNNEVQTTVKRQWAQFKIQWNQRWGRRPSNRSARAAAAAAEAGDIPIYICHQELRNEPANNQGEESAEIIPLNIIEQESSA
T1 sequence (O60896 24-148 partner): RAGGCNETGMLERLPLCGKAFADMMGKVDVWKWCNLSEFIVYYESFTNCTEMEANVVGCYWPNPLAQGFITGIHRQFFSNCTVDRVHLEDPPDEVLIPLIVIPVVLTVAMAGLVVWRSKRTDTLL
Procedure, shortened: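 Read-out is TR-FRET cAMP signal, recorded one hour after reagent addition, following 30 min room-temperature stimulation of stable hAMY3 cells with graded compound doses in casein/IBMX (0.5 mM) buffer.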

[2] = target: hAM1 receptor (Homo sapiens, UniProt O60895+Q16602); test: cAMP assay for in vitro receptor activation, hAM1-R; type: cell-based; conditions: cAMP assay, hAM1 receptor; read-out: hAM1R EC50
Procedure, shortened: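 A subcloned monoclonal line stably expressing hAM1 receptor is thawed and plated at 8000 cells/well. The assay buffer is DPBS with 0.05% casein and 0.5 mM IBMX, and receptor activation is followed by cAMP levels.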

[3] = Physical stability of peptide analogues (Thioflavin T fibrillation); type: physicochemical; conditions: maximum ThT signal normalized between hAMY maximum and buffer background; 40° C., shaking, four days; pH 7 per table title
Procedure, shortened: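 1 h in 50 mM NaOAc pH 4 / 50 mM NaPi pH 7; + ThT 4 μM final; 40 °C, 700 rpm linear shake 5 min pre-read; ex 450, em 480 nm q10 min × 4 d; LOESS smoothing; max signal normalised to hAMY max vs buffer blank.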

hAM1 receptor, sequence (Q16602 23-461): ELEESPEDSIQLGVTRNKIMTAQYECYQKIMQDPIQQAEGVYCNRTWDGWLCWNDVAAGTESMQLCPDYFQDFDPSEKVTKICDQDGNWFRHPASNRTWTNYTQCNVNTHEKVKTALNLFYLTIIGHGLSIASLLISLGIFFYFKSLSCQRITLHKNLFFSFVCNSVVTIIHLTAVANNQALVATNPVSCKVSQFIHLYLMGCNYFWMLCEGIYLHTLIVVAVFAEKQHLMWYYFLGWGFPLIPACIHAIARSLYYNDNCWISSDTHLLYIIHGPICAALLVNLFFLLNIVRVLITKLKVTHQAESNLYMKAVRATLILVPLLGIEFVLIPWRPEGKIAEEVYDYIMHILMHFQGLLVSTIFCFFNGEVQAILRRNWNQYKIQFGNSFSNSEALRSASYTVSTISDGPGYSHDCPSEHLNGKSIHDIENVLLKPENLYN
hAM1 receptor, sequence (O60895 43-175 partner): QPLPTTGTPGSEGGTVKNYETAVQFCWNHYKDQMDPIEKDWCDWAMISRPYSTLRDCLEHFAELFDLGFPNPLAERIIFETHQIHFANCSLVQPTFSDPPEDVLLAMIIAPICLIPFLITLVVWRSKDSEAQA

Row | Compound | EC50 [1] | EC50 [2] | Max ThT signal (%) [3]
1 | CC[C@H](C)[C@H](NC(=O)[C@H](CCC(N)=O)NC(=O)[C@H](Cc1c[nH]cn1)NC(=O)[C@H](C)NC(=O)[C@H](CC(C)C)NC(=O)[C@H](CCCNC(N)=O)NC(=O)[C@H](CCC(N)=O)NC(=O)[C@@H](NC(=O)[C@@H](NC(=O)[C@@H]1CSSC[C@H](NC(=O)CN)C(=O)N[C@@H](CCCNC(=N)N)C(=O)N[C@@H](Cc2ccccc2)C(=O)NCC(=O)N[C@@H]([C@@H](C)O)C(=O)N1)[C@@H](C)O)C(C)C)C(=O)N[C@@H](Cc1ccc(O)cc1)C(=O)N[C@@H](CCC(N)=O)C(=O)N[C@@H](Cc1ccccc1)C(=O)N[C@H](C(=O)N[C@@H](CC(=O)O)C(=O)N[C@@H](CCCCN)C(=O)N[C@@H](CC(=O)O)C(=O)N[C@@H](CCCCN)C(=O)N[C@@H](CC(=O)O)C(=O)N[C@@H](CC(N)=O)C(=O)N[C@H](C(=O)N[C@@H](C)C(=O)N1CCC[C@H]1C(=O)N[C@@H](CCCNC(=N)N)C(=O)N[C@@H](CO)C(=O)N[C@@H](CCCCN)C(=O)N[C@H](C(=O)N[C@@H](CO)C(=O)N1CCC[C@H]1C(=O)N[C@@H](CCC(N)=O)C(=O)NCC(=O)N1C[C@H](O)C[C@H]1C(N)=O)C(C)C)C(C)C)[C@@H](C)O [compound 305] (H-GCRFGTCTVQ[Cit]LAHQIYQFTDKDKDNVAPRSKVSPQG[Hyp]-NH2; disulfide 2-7) | 0.085 nM | > 5000 nM | 24.600%
2 | CC[C@H](C)[C@H](NC(=O)[C@H](CCC(N)=O)NC(=O)[C@H](Cc1c[nH]cn1)NC(=O)[C@H](C)NC(=O)[C@H](CC(C)C)NC(=O)[C@H](CCCNC(=N)N)NC(=O)[C@H](CCC(N)=O)NC(=O)[C@@H](NC(=O)[C@@H](NC(=O)[C@@H]1CSSC[C@H](NC(=O)CN)C(=O)N[C@@H](CCCNC(=N)N)C(=O)N[C@@H](CCSC)C(=O)NCC(=O)N[C@@H]([C@@H](C)O)C(=O)N1)[C@@H](C)O)C(C)C)C(=O)N[C@@H](Cc1ccc(O)cc1)C(=O)N[C@@H](CCC(N)=O)C(=O)N[C@@H](Cc1ccccc1)C(=O)N[C@H](C(=O)N[C@@H](CC(=O)O)C(=O)N[C@@H](CCCCN)C(=O)N[C@@H](CC(=O)O)C(=O)N[C@@H](CCCCN)C(=O)N[C@@H](CC(=O)O)C(=O)N[C@@H](CC(N)=O)C(=O)N[C@H](C(=O)N[C@@H](C)C(=O)N1CCC[C@H]1C(=O)N[C@@H](CO)C(=O)N[C@@H](CO)C(=O)N[C@@H](CCCCN)C(=O)N[C@H](C(=O)N[C@@H](CO)C(=O)N1CCC[C@H]1C(=O)N[C@@H](CCC(N)=O)C(=O)N[C@H](C(=O)N1C[C@H](O)C[C@H]1C(N)=O)[C@@H](C)O)[C@@H](C)CC)C(C)C)[C@@H](C)O [compound 222] (H-GCRMGTCTVQRLAHQIYQFTDKDKDNVAPSSKISPQT[Hyp]-NH2; disulfide 2-7; N-terminus assumed) | 0.184 nM | > 5000 nM | 11.700%
3 | CC[C@H](C)[C@H](NC(=O)[C@H](CCC(N)=O)NC(=O)[C@H](Cc1c[nH]cn1)NC(=O)[C@H](C)NC(=O)[C@H](CC(C)C)NC(=O)[C@H](CCCNC(N)=O)NC(=O)[C@H](CCC(N)=O)NC(=O)[C@@H](NC(=O)[C@@H](NC(=O)[C@@H]1CSSC[C@H](NC(=O)CN)C(=O)N[C@@H](CCCNC(=N)N)C(=O)N[C@@H](Cc2ccccc2)C(=O)NCC(=O)N[C@@H]([C@@H](C)O)C(=O)N1)[C@@H](C)O)C(C)C)C(=O)N[C@@H](Cc1ccc(O)cc1)C(=O)N[C@@H](CCC(N)=O)C(=O)N[C@@H](Cc1ccccc1)C(=O)N[C@H](C(=O)N[C@@H](CC(=O)O)C(=O)N[C@@H](CCCCN)C(=O)N[C@@H](CC(=O)O)C(=O)N[C@@H](CCCCN)C(=O)N[C@@H](CC(=O)O)C(=O)N[C@@H](CC(N)=O)C(=O)N[C@H](C(=O)N[C@@H](C)C(=O)N1CCC[C@H]1C(=O)N[C@@H](CCCNC(=N)N)C(=O)N[C@H](C(=O)N[C@@H](CCCCN)C(=O)N[C@H](C(=O)N[C@@H](CO)C(=O)N1CCC[C@H]1C(=O)N[C@@H](CCC(N)=O)C(=O)NCC(=O)N1C[C@H](O)C[C@H]1C(N)=O)[C@@H](C)CC)[C@@H](C)O)C(C)C)[C@@H](C)O [compound 294] (H-GCRFGTCTVQ[Cit]LAHQIYQFTDKDKDNVAPRTKISPQG[Hyp]-NH2; disulfide 2-7) | 0.045 nM | > 5000 nM | 16.850%

These reach a lower EC50 [1]. Values come first.

Row | EC50 [1] | EC50 [2] | Max ThT signal (%) [3] | Compound
4 | 0.034 nM | 5.94 nM | 9.600% | CC[C@H](C)[C@H](NC(=O)[C@H](CCC(N)=O)NC(=O)[C@H](Cc1c[nH]cn1)NC(=O)[C@H](C)NC(=O)[C@H](CC(C)C)NC(=O)[C@H](CCCNC(=N)N)NC(=O)[C@H](CCC(N)=O)NC(=O)[C@@H](NC(=O)[C@@H](NC(=O)[C@@H]1CSSC[C@H](NC(=O)CN)C(=O)N[C@@H](CCCNC(=N)N)C(=O)N[C@@H](Cc2ccccc2)C(=O)NCC(=O)N[C@@H]([C@@H](C)O)C(=O)N1)[C@@H](C)O)C(C)C)C(=O)N[C@@H](Cc1ccc(O)cc1)C(=O)N[C@@H](CCC(N)=O)C(=O)N[C@@H](Cc1ccccc1)C(=O)N[C@H](C(=O)N[C@@H](CC(=O)O)C(=O)N[C@@H](CCCCN)C(=O)N[C@@H](CC(=O)O)C(=O)N[C@@H](CCCCN)C(=O)N[C@@H](CC(=O)O)C(=O)N[C@@H](CC(N)=O)C(=O)N[C@H](C(=O)N[C@@H](C)C(=O)N1CCC[C@H]1C(=O)N[C@@H](CCCNC(=N)N)C(=O)N[C@@H](CO)C(=O)N[C@@H](CC(N)=O)C(=O)N[C@H](C(=O)N[C@@H](CO)C(=O)N1CCC[C@H]1C(=O)N[C@@H](CC(N)=O)C(=O)NCC(=O)N[C@@H](Cc1ccc(O)cc1)C(N)=O)[C@@H](C)CC)C(C)C)[C@@H](C)O [compound 383] (H-GCRFGTCTVQRLAHQIYQFTDKDKDNVAPRSNISPNGY-NH2; disulfide 2-7; N-terminus assumed)
5 | 0.025 nM | > 5000 nM | 4.250% | CC[C@H](C)[C@H](NC(=O)[C@H](CCC(N)=O)NC(=O)[C@H](Cc1c[nH]cn1)NC(=O)[C@H](C)NC(=O)[C@H](CC(C)C)NC(=O)[C@H](Cc1c[nH]c2ccccc12)NC(=O)[C@H](CCC(N)=O)NC(=O)[C@@H](NC(=O)[C@@H](NC(=O)[C@@H]1CSSC[C@H](NC(=O)[C@@H](N)CCCCN)C(=O)N[C@@H](CC(N)=O)C(=O)N[C@@H]([C@@H](C)O)C(=O)N[C@@H](C)C(=O)N[C@@H]([C@@H](C)O)C(=O)N1)[C@@H](C)O)C(C)C)C(=O)N[C@@H](C)C(=O)N[C@@H](CCC(N)=O)C(=O)N[C@@H](Cc1ccccc1)C(=O)N[C@H](C(=O)N[C@@H](CC(=O)O)C(=O)N[C@@H](CCCCN)C(=O)N[C@@H](CC(=O)O)C(=O)N[C@@H](CCCCN)C(=O)N[C@@H](CC(=O)O)C(=O)N[C@@H](CC(N)=O)C(=O)N[C@H](C(=O)N[C@@H](C)C(=O)N1CCC[C@H]1C(=O)N1CCC[C@H]1C(=O)N[C@H](C(=O)N[C@@H](CC(N)=O)C(=O)N[C@H](C(=O)NCC(=O)N[C@@H](CO)C(=O)N[C@@H](CC(N)=O)C(=O)NCC(=O)N1C[C@H](O)C[C@H]1C(N)=O)C(C)C)[C@@H](C)O)C(C)C)[C@@H](C)O [compound 309] (H-KCNTATCTVQWLAHQIAQFTDKDKDNVAPPTNVGSNG[Hyp]-NH2; disulfide 2-7; N-terminus assumed)
